From PubChem BioAssay (NCI)
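The concentration for 50% growth inhibition is given as GI50. TGI denotes the concentration required for complete inhibition of growth.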

Legend:
Assay in all cases: NCI anticancer screen, dose series, 384-well format
[1] = test system: HS 578T breast
[2] = test system: OVCAR-8 ovarian
[3] = test system: OVCAR-5 ovarian
[4] = test system: HCT-15 colon
[5] = test system: SF-268 CNS
[6] = test system: UACC-257 melanoma
[7] = test system: NCI-H322M lung
[8] = test system: MCF7 breast
[9] = test system: HOP-92 NSCLC
[10] = test system: MALME-3M melanoma
[11] = test system: DU-145 prostate
[12] = test system: KM12 colon
[13] = test system: TK-10 renal
[14] = test system: HL-60(TB) leukemia
[15] = test system: RPMI-8226 leukemia
[16] = test system: MDA-MB-468 breast
[17] = test system: UO-31 renal
[18] = test system: SK-MEL-28 melanoma
[19] = test system: UACC-62 melanoma
[20] = test system: SNB-75 CNS
[21] = test system: OVCAR-3 ovarian
[22] = test system: T-47D breast
[23] = test system: 786-0 renal
[24] = test system: MDA-MB-231 breast
[25] = test system: MDA-MB-435 melanoma
[26] = test system: HOP-62 NSCLC
[27] = test system: M14 melanoma
[28] = test system: CAKI-1 renal
[29] = test system: RXF 393 renal
[30] = test system: NCI-H226 lung
[31] = test system: SNB-19 CNS
[32] = test system: A549 NSCLC
[33] = test system: CCRF-CEM leukemia
[34] = test system: NCI/ADR-RES ovarian
[35] = test system: SW-620 colon
[36] = test system: SK-MEL-2 melanoma
[37] = test system: BT-549 breast
[38] = test system: ACHN renal
[39] = test system: SF-539 CNS
[40] = test system: SK-OV-3 ovarian
[41] = test system: PC-3 prostate
[42] = test system: SF-295 CNS
[43] = test system: LOX IMVI melanoma
[44] = test system: HT29 colon
[45] = test system: IGROV1 ovarian
[46] = test system: NCI-H23 lung
[47] = test system: MOLT-4 leukemia
[48] = test system: K-562 leukemia
[49] = test system: HCT-116 colon
[50] = test system: NCI-H522 lung
[51] = test system: A498 renal
[52] = test system: EKVX NSCLC
[53] = test system: SN12C renal
[54] = test system: U251 glioblastoma
[55] = test system: OVCAR-4 ovarian

O=c1[nH]c(=O)n(C2CC(O)C(CO)O2)cc1C(F)(F)F (stereo not given)
GI50 [1]: 25.4 µM | TGI [1]: > 100 µM | GI50 [2]: 4.72 µM | TGI [2]: 30.2 µM | GI50 [3]: 12 µM | TGI [3]: > 100 µM | GI50 [4]: 4.18 µM | TGI [4]: > 100 µM | GI50 [5]: 2.21 µM | TGI [5]: 14.3 µM | GI50 [6]: 12.8 µM | TGI [6]: > 100 µM | GI50 [7]: 66 µM | TGI [7]: > 100 µM | GI50 [8]: 0.212 µM | TGI [8]: > 100 µM | GI50 [9]: 50.8 µM | TGI [9]: > 100 µM | GI50 [10]: 1.38 µM | TGI [10]: > 100 µM | GI50 [11]: 0.53 µM | TGI [11]: 8.6 µM | GI50 [12]: 7.51 µM | TGI [12]: > 100 µM | GI50 [13]: 14.6 µM | TGI [13]: > 100 µM | GI50 [14]: 0.171 µM | TGI [14]: 0.394 µM | GI50 [15]: 0.199 µM | TGI [15]: 11.5 µM | GI50 [16]: 2.61 µM | TGI [16]: 19.5 µM | GI50 [17]: 2.55 µM | TGI [17]: 14.2 µM | GI50 [18]: 6.78 µM | TGI [18]: > 100 µM | GI50 [19]: 3.25 µM | TGI [19]: 23 µM | GI50 [20]: 15.9 µM | TGI [20]: > 100 µM | GI50 [21]: 5.96 µM | TGI [21]: > 100 µM | GI50 [22]: 7.65 µM | TGI [22]: > 100 µM | GI50 [23]: 2.94 µM | TGI [23]: 77.6 µM | GI50 [24]: 23.6 µM | TGI [24]: > 100 µM | GI50 [25]: 8.93 µM | TGI [25]: > 100 µM | GI50 [26]: 2.27 µM | TGI [26]: 11 µM | GI50 [27]: 2.42 µM | TGI [27]: 16.1 µM | GI50 [28]: 4.13 µM | TGI [28]: > 100 µM | GI50 [29]: 2.48 µM | TGI [29]: 87.2 µM | GI50 [30]: 15.3 µM | TGI [30]: 61.2 µM | GI50 [31]: 3.45 µM | TGI [31]: > 100 µM | GI50 [32]: 2.43 µM | TGI [32]: > 100 µM | GI50 [33]: 0.234 µM | TGI [33]: 0.469 µM | GI50 [34]: 3.88 µM | TGI [34]: 36.5 µM | GI50 [35]: 1.24 µM | TGI [35]: > 100 µM | GI50 [36]: > 100 µM | TGI [36]: > 100 µM | GI50 [37]: 0.763 µM | TGI [37]: 9.01 µM | GI50 [38]: 0.519 µM | TGI [38]: 2.95 µM | GI50 [39]: 4.81 µM | TGI [39]: 20.4 µM | GI50 [40]: 7.07 µM | TGI [40]: > 100 µM | GI50 [41]: 80.1 µM | TGI [41]: > 100 µM | GI50 [42]: 3.21 µM | TGI [42]: 12.3 µM | GI50 [43]: 0.813 µM | TGI [43]: 9.83 µM | GI50 [44]: 13.4 µM | TGI [44]: > 100 µM | GI50 [45]: 13 µM | TGI [45]: > 100 µM | GI50 [46]: 2.06 µM | TGI [46]: 11.3 µM | GI50 [47]: 0.197 µM | TGI [47]: 0.459 µM | GI50 [48]: 0.705 µM | TGI [48]: > 100 µM | GI50 [49]: 0.698 µM | TGI [49]: > 100 µM | GI50 [50]: 21.8 µM | TGI [50]: > 100 µM | GI50 [51]: 7.94 µM | TGI [51]: > 100 µM | GI50 [52]: > 100 µM | TGI [52]: > 100 µM | GI50 [53]: 1.9 µM | TGI [53]: 9 µM | GI50 [54]: 4.87 µM | TGI [54]: 79.7 µM | GI50 [55]: 88.5 µM | TGI [55]: > 100 µM
